In patent US20260345543A1, “Bridged Bicyclic Compounds and their Derivatives as Antiepileptic Agents and Methods of Use Thereof” (Florida Atlantic University Board of Trustees, priority 2022, published 2026):

Columns and labels:
[1] = system: unc-25 and unc-49 loss of function mutant C. elegans; conditions: unc-25 and unc-49 mutants; concentration not given; cited from earlier work
[2] = system: C. elegans (N2 worms); conditions: effect of PTZ application; concentration not given; cited from earlier work
[3] = system: C. elegans (N2 worms); assay: C. elegans electroshock seizure assay (recovery time; with or without PTZ); type: in vivo; conditions: 3 mM (3000 μM); with PTZ; control AED
Source text: FIG. 2 is a graph showing recovery time (seconds) for N2 worms (vertical axis) in the presence of M9 or pentylenetetrazol (PTZ) (first two bars). In other experiments, PTZ is combined with either an RVM or sodium valproate.
FIG. 3 left is the structure of RVM-3, and FIG. 3 right is a graph showing recovery time (seconds) for N2 worms (vertical axis) in the presence of M9 or PTZ (first two bars). In other experiments, PTZ is combined with RVM-3 at varying concentrations or sodium valproate.
The structures of these RVMs are comprised of an all-carbon bridged bicyclic scaffold that is fully saturated, a motif that is without precedent in the AED literature. […] It is expected that a pharmacological intervention based on RVMs will provide relief from epileptic events at low dosages.
The C. elegans seizure assay includes placing L4 C. elegans into a small tube that is capped on both sides by copper wires. A shock of 47 V for three seconds is then administered. […] Recovery is recorded when the animals present with coordinated three sinusoidal movements, which is then characterized as normal swimming activity. […]
This C. elegans assay offers a new model for the evaluation of electroconvulsive seizures (FIG. 4). […] Recovery is recorded when the animals present with three sinusoidal movements, which is then characterized as normal swimming activity. […]

SMILES | sensitivity to electroshock when mutants are treated with antiepileptic drugs [1] | seizure-like phenotypes seen in C. elegans [2] | sensitivity to electroshock when mutants are additionally treated with PTZ [1] | restoration of recovery time [3]
CC[C@@H](C(N)=O)N1CCCC1=O [Keppra, levetiracetam] | increased sensitivity is rescued |  |  | 
C1CCc2nnnn2CC1 [PTZ, Pentylenetetrazole] |  | enhances the seizure-like phenotypes | sensitivity to electroshock is increased | 
CCOC(=O)Nc1ccc(NCc2ccc(F)cc2)cc1N [Retigabine] | increased sensitivity is rescued |  |  | 
CCCC(CCC)C(=O)[O-].[Na+] [Sodium valproate, sodium valproate] | increased sensitivity is rescued |  |  | relatively modest restoration of recovery time
